Experimental data from PubChem BioAssay (NCI).
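These data come from cells grown in 96-well plates and exposed to compound for 48 hours at five concentrations. TGI marks complete inhibition of growth.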

Legend:
Experiment in all cases: growth of human tumour cells (NCI), 48 h
[1] = test system: M14 melanoma
[2] = test system: SF-539 CNS
[3] = test system: HOP-18 NSCLC
[4] = test system: SF-295 CNS
[5] = test system: EKVX NSCLC
[6] = test system: NCI-H23 lung
[7] = test system: KM12 colon
[8] = test system: UACC-62 melanoma
[9] = test system: U251 CNS
[10] = test system: SW-620 colon
[11] = test system: M19-MEL melanoma
[12] = test system: SK-MEL-2 melanoma
[13] = test system: RPMI-8226 leukemia
[14] = test system: SNB-75 CNS
[15] = test system: OVCAR-3 ovarian
[16] = test system: K-562 leukemia
[17] = test system: SN12C renal
[18] = test system: MOLT-4 leukemia
[19] = test system: SK-MEL-5 melanoma
[20] = test system: DMS 114 small cell lung
[21] = test system: NCI-H460 lung
[22] = test system: HT29 colon
[23] = test system: NCI-H522 lung
[24] = test system: COLO 205 colon
[25] = test system: HCT-116 colon
[26] = test system: MALME-3M melanoma
[27] = test system: SNB-19 CNS
[28] = test system: 786-0 renal
[29] = test system: SK-OV-3 ovarian
[30] = test system: CCRF-CEM leukemia
[31] = test system: UACC-257 melanoma
[32] = test system: XF 498 CNS
[33] = test system: HOP-62 NSCLC
[34] = test system: DMS 273 small cell lung
[35] = test system: IGROV1 ovarian
[36] = test system: A549 NSCLC
[37] = test system: OVCAR-8 ovarian
[38] = test system: ACHN renal
[39] = test system: TK-10 renal
[40] = test system: HL-60(TB) leukemia
[41] = test system: NCI-H226 lung
[42] = test system: UO-31 renal
[43] = test system: SK-MEL-28 melanoma
[44] = test system: RXF 393 renal
[45] = test system: LOX IMVI melanoma
[46] = test system: HCT-15 colon
[47] = test system: LXFL 529 NSCLC
[48] = test system: OVCAR-4 ovarian
[49] = test system: HCC-2998 colon
[50] = test system: SR leukemia
[51] = test system: SF-268 CNS
[52] = test system: KM20L2 colon
[53] = test system: A498 renal
[54] = test system: OVCAR-5 ovarian
[55] = test system: DLD-1 colon
[56] = test system: CAKI-1 renal

Measured: TGI

CC(=O)NS(=O)(=O)c1ccc(NC(=O)COC(=O)c2cccc3c(=O)c4ccccc4[nH]c23)cc1
not listed: [47] | [48] | [49] | [50] | [51] | [52] | [53] | [54] | [55] | [56]
> 100 µM: all other assays above

COC(=O)C(=O)C1(CCC(C)=O)c2ccccc2-c2ccccc21
not listed: [2] | [32]
> 100 µM: all other assays above
